Target: STING (Homo sapiens, UniProt Q86WV6, G230A/H232R/R293Q/R71H)
Test: STING reporter assay in THP1-Dual KO-IFNAR2 cells (2′3′cGAMP stimulation, luciferase reporter)
Type: cell-based
Conditions: 15 μM 2′3′cGAMP stimulation, 24 h, read-out: Pharmaron, THP1_IFNAR2 STING 24 h Luci Normalized: GeoMean EC50
How it was run: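 EC50 from secreted luciferase (QUANTI-Luc Plus luminescence of supernatant) after 24 h at 37 °C, 5% CO2. Cells: THP1-Dual KO-IFNAR2, treated with compound (0.0017-100 μM final) plus lipofected 2′3′cGAMP at 15 μM final.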

Chain of STING (Q86WV6 whole entry R71H/G230A/H232R/R293Q): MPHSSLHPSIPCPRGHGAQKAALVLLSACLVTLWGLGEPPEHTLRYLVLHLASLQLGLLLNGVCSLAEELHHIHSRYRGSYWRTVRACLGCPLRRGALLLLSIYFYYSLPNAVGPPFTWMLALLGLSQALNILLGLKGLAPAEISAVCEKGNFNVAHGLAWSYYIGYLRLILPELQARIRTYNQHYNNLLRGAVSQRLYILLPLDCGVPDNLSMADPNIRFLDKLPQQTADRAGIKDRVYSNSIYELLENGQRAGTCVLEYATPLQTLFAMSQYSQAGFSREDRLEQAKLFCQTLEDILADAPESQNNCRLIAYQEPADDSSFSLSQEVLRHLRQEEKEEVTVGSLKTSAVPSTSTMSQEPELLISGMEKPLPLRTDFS

Compound	EC50 [nM]
CC[C@@H](O)C(=O)Nc1c[nH]c2ccc(O[C@H]3C[C@H](c4ccc(C(F)(F)F)cc4)C3)cc12 [Compound 429, (R)-2-hydroxy-N-(5-(trans-3-(4-(trifluoromethyl)phenyl)cyclobutoxy)-1H-indol-3-yl)butanamide]	200 to 1000
CC(=O)Nc1c[nH]c2ccc(CO[C@H]3C[C@@H](c4ccc(C(F)(F)F)cc4)C3)cc12 [Compound 500, N-(5-((cis-3-(4-(trifluoromethyl)phenyl)cyclobutoxy)methyl)-1H-indol-3-yl)acetamide]	40 to 200
O=C(Nc1c[nH]c2ccc(O[C@H]3C[C@@H](c4ccc(C(F)(F)F)cc4)C3)cc12)C1CC(CO)C1 (stereo partly drawn) [Compound 158, 3-(hydroxymethyl)-N-(5-(cis-3-(4-(trifluoromethyl)phenyl)cyclobutoxy)-1H-indol-3-yl)cyclobutane-1-carboxamide]	40 to 200
O=C(Nc1c[nH]c2ccc(OCCc3ccc(C(F)(F)F)cc3)cc12)C1CN(CC(F)(F)F)C1 [Compound 210, 1-(2,2,2-trifluoroethyl)-N-(5-(4-(trifluoromethyl)phenethoxy)-1H-indol-3-yl)azetidine-3-carboxamide]	40 to 200
CO[C@H]1C[C@H](C(=O)Nc2c[nH]c3ccc(O[C@H]4C[C@H](c5ccc(C(F)(F)F)cc5)C4)cc23)C1 [Compound 242, trans-3-methoxy-N-(5-(trans-3-(4-(trifluoromethyl)phenyl)cyclobutoxy)-1H-indol-3-yl)cyclobutane-1-carboxamide]	40 to 200
CO[C@H]1C[C@H](C(=O)Nc2c[nH]c3ccc(O[C@H]4C[C@@H](c5ccc(C(F)(F)F)cc5)C4)cc23)C1 [Compound 295, trans-3-methoxy-N-(5-(cis-3-(4-(trifluoromethyl)phenyl)cyclobutoxy)-1H-indol-3-yl)cyclobutane-1-carboxamide]	40 to 200
CC1(C(=O)Nc2c[nH]c3ccc(O[C@H]4C[C@H](c5ccc(C(F)(F)F)cc5)C4)cc23)COC1 [Compound 148, 3-methyl-N-(5-(trans-3-(4-(trifluoromethyl)phenyl)cyclobutoxy)-1H-indol-3-yl)oxetane-3-carboxamide]	200 to 1000
COCC1(C(=O)Nc2c[nH]c3ccc(O[C@H]4C[C@@H](c5ccc(C(F)(F)F)cc5)C4)cc23)CC1 [Compound 333, 1-(methoxymethyl)-N-(5-(cis-3-(4-(trifluoromethyl)phenyl)cyclobutoxy)-1H-indol-3-yl)cyclopropane-1-carboxamide]	1000 to 5000
COCC1(C(=O)Nc2c[nH]c3ccc(O[C@H]4C[C@H](c5ccc(C(F)(F)F)cc5)C4)cc23)CC1 [Compound 468, l-(methoxymethyl)-N-{5-[(1R,3R)-3-[4-(trifluoromethyl)phenyl]cyclobutoxy]-1H-indol-3-yl}cyclopropane-1-carboxamide]	200 to 1000
O=C(Nc1c[nH]c2ccc(CCOc3ccc(C(F)(F)F)cc3)cc12)C1CC1(F)Cl (centres unmarked) [Compound 175, 2-chloro-2-fluoro-N-(5-(2-(4-(trifluoromethyl)phenoxy)ethyl)-1H-indol-3-yl)cyclopropane-1-carboxamide]	200 to 1000
C[C@]1(C(=O)Nc2c[nH]c3ccc(O[C@H]4C[C@H](c5ccc(C(F)(F)F)cc5)C4)cc23)CC[C@@H](O)CC1 (single isomer, unassigned) [Compound 426, cis-4-hydroxy-1-methyl-N-(5-(trans-3-(4-(trifluoromethyl)phenyl)cyclobutoxy)-1H-indol-3-yl)cyclohexane-1-carboxamide]	40 to 200
COCC(=O)Nc1c[nH]c2ccc(OCCc3ccc(C(F)(F)F)cc3)cc12 [Compound 107, 2-methoxy-N-(5-(4-(trifluoromethyl)phenethoxy)-1H-indol-3-yl)acetamide]	40 to 200
N#CC1CCC1C(=O)Nc1c[nH]c2ccc(O[C@H]3C[C@@H](c4ccc(C(F)(F)F)cc4)C3)cc12 (stereo partly drawn) [Compound 355, 2-cyano-N-(5-(cis-3-(4-(trifluoromethyl)phenyl)cyclobutoxy)-1H-indol-3-yl)cyclobutane-1-carboxamide]	200 to 1000
C[C@H]1C[C@@H](C(=O)Nc2c[nH]c3ccc(OCCc4ccc(C(F)(F)F)cc4)cc23)C1 [Compound 162, cis-3-methyl-N-(5-(4-(trifluoromethyl)phenethoxy)-1H-indol-3-yl)cyclobutane-1-carboxamide]	40 to 200
CC1(C(=O)Nc2c[nH]c3ccc(O[C@H]4C[C@H](c5ccc(C(F)(F)F)cc5)C4)cc23)CCCO1 (stereo partly drawn) [Compound 487, 2-methyl-N-{5-[(1R,3R)-3-[4-(trifluoromethyl)phenyl]cyclobutoxy]-1H-indol-3-yl}oxolane-2-carboxamide]	40 to 200

Next, values leading:

EC50 [nM]	Compound
200 to 1000	C[C@]1(C(=O)Nc2c[nH]c3ccc(OCC[C@@H]4C[C@@H]5CN(CC(F)(F)F)C[C@@H]5C4)cc23)C[C@@H](O)C1 [Compound 513, (1s,3S)-3-hydroxy-1-methyl-N-(5-(2-((3aR,5r,6aS)-2-(2,2,2-trifluoroethyl)octahydrocyclopenta[c]pyrrol-5-yl)ethoxy)-1H-indol-3-yl)cyclobutane-1-carboxamide]
200 to 1000	O=C(Nc1c[nH]c2ccc(OCc3ccc(C(F)(F)F)cc3)cc12)C1CC1(F)F (centres unmarked) [Compound 330, 2,2-difluoro-N-(5-((4-(trifluoromethyl)benzyl)oxy)-1H-indol-3-yl)cyclopropane-1-carboxamide]
200 to 1000	CC(=O)Nc1c[nH]c2ccc(OCC[C@@H]3C[C@@H]4CN(CC(F)(F)F)C[C@@H]4C3)cc12 [Compound 283, N-(5-(2-((3aR,5r,6aS)-2-(2,2,2-trifluoroethyl)octahydrocyclopenta[c]pyrrol-5-yl)ethoxy)-1H-indol-3-yl)acetamide]
200 to 1000	COCC1(C(=O)Nc2c[nH]c3ccc(OCc4ccc(C(F)(F)F)cc4)cc23)CC1 [Compound 319, 1-(methoxymethyl)-N-(5-((4-(trifluoromethyl)benzyl)oxy)-1H-indol-3-yl)cyclopropane-1-carboxamide]
40 to 200	CC1(C(=O)Nc2c[nH]c3ccc(OCCc4ccc(C(F)(F)F)cc4)cc23)CCOCC1 [Compound 237, 4-methyl-N-(5-(4-(trifluoromethyl)phenethoxy)-1H-indol-3-yl)tetrahydro-2H-pyran-4-carboxamide]
200 to 1000	CC(C)(C)OC(=O)N1CC(C)(C(=O)Nc2c[nH]c3ccc(OCCc4ccc(C(F)(F)F)cc4)cc23)C1 [Compound 570, tert-butyl 3-methyl-3-((5-(4-(trifluoromethyl)phenethoxy)-1H-indol-3-yl)carbamoyl)azetidine-1-carboxylate]
1000 to 5000	CC(=O)Nc1c[nH]c2ccc(OCCC3CN(CC(F)(F)F)CC34CC4)cc12 (centres unmarked) [Compound 478, N-(5-(2-(5-(2,2,2-trifluoroethyl)-5-azaspiro[2.4]heptan-7-yl)ethoxy)-1H-indol-3-yl)acetamide]
200 to 1000	CC(=O)Nc1c[nH]c2ccc(CCOc3ccccc3)cc12 [Compound 558, N-(5-(2-phenoxyethyl)-1H-indol-3-yl)acetamide]
200 to 1000	CC1(C(=O)Nc2c[nH]c3ccc(CCOc4ccc(C(F)(F)F)cc4)cc23)CC1 [Compound 399, 1-methyl-N-(5-(2-(4-(trifluoromethyl)phenoxy)ethyl)-1H-indol-3-yl)cyclopropane-1-carboxamide]
200 to 1000	CCC(=O)Nc1c[nH]c2ccc(COc3ccc(C)cc3)cc12 [Compound 291, N-(5-((p-tolyloxy)methyl)-1H-indol-3-yl)propionamide]
5000 to 100000	CC(=O)Nc1c[nH]c2ccc(CCOc3cccnc3)cc12 [Compound 581, N-(5-(2-(pyridin-3-yloxy)ethyl)-1H-indol-3-yl)acetamide]
200 to 1000	C[C@]1(C(=O)Nc2c[nH]c3ccc(OCC[C@@H]4C[C@@H]5CN(CC(F)(F)F)C[C@@H]5C4)cc23)C[C@@H](CO)C1 [Compound 511, (1s,3S)-3-(hydroxymethyl)-1-methyl-N-(5-(2-((3aR,5r,6aS)-2-(2,2,2-trifluoroethyl)octahydrocyclopenta[c]pyrrol-5-yl)ethoxy)-1H-indol-3-yl)cyclobutane-1-carboxamide]
5000 to 100000	CC(=O)Nc1c[nH]c2ccc(CC(Cc3ccc(C(F)(F)F)cc3)C(=O)O)cc12 (centres unmarked) [Compound 532, 3-(3-acetamido-1H-indol-5-yl)-2-(4-(trifluoromethyl)benzyl)propanoic acid]
1000 to 5000	CC(=O)Nc1c[nH]c2ccc(OC(C)c3ccc(C(F)(F)F)cc3)cc12 (centres unmarked) [Compound 497, N-(5-(1-(4-(trifluoromethyl)phenyl)ethoxy)-1H-indol-3-yl)acetamide]
1000 to 5000	CC(=O)Nc1c[nH]c2ccc(CCOc3ccc(C#N)cc3)cc12 [Compound 462, N-{5-[2-(4-cyanophenoxy)ethyl]-1H-indol-3-yl}acetamide]
200 to 1000	C[C@]1(C(=O)Nc2c[nH]c3ccc(OCc4ccc(C(F)(F)F)cc4)cc23)C[C@H](CO)C1 [Compound 416, cis-3-(hydroxymethyl)-1-methyl-N-(5-((4-(trifluoromethyl)benzyl)oxy)-1H-indol-3-yl)cyclobutane-1-carboxamide]
200 to 1000	CC(=O)Nc1c[nH]c2ccc(CCOc3ccc(OC(F)(F)F)nc3)cc12 [Compound 471, N-[5-(2-{[6-(trifluoromethoxy)pyridin-3-yl]oxy}ethyl)-1H-indol-3-yl]acetamide]
5000 to 100000	CC(=O)Nc1c[nH]c2ccc(CCOc3ccc(Cl)nc3C)cc12 [Compound 556, N-(5-(2-((6-chloro-2-methylpyridin-3-yl)oxy)ethyl)-1H-indol-3-yl)acetamide]
200 to 1000	O=C(Nc1c[nH]c2ccc(OCc3ccc(C(F)(F)F)cc3)cc12)[C@H]1C[C@@H](O)C1 [Compound 324, cis-3-hydroxy-N-(5-((4-(trifluoromethyl)benzyl)oxy)-1H-indol-3-yl)cyclobutane-1-carboxamide]
200 to 1000	O=C(Nc1c[nH]c2ccc(OCCC3CCCN(CC(F)(F)F)C3)cc12)C1CC1 (centres unmarked) [Compound 498, N-(5-(2-(1-(2,2,2-trifluoroethyl)piperidin-3-yl)ethoxy)-1H-indol-3-yl)cyclopropanecarboxamide]
